system: hedgehog signaling pathway; test: Gli-Luc Reporter Assay for Hh Pathway Inhibition (TMHh-12 cells, pTA-8×Gli-Luc reporter); format: cell-based, Mouse; details: Mus musculus, TMHh12, Ag1.5 1 nM; read-out: Hedgehog Inhibition IC50 (nM) (Ag1.5 1 nM)
Procedure: Compounds of the present invention are assayed to evaluate their capacity to inhibit the hedgehog signaling pathway.
Gli-Luc Reporter Assay for Hh Pathway Inhibition
Mouse TM3 cells (obtained from American Type Culture Collection, ATCC, Manassas, Va.) are cultured in DMEM/F12 medium (Gibco/Invitrogen, Carlsbad, Calif.) supplemented with 5% heat inactivated horse serum and 2.5% FBS (Gibco/Invitrogen, Carlsbad, Calif.), 50 unit/mL penicillin and 50 μg/mL of streptomycin (Gibco/Invitrogen, Carlsbad, Calif.) at […] with 5% CO2 in air atmosphere. TM3 cells were transfected with pTA-8×Gli-Luc reporter plasmid. A stably transfected clone termed TMHh-12 was selected. […] To evaluate the IC50s of the antagonists, 8000 TMHh-12 cells were plated into each wells in 384-well plates with 50% DMEM/F12 medium supplemented with 2% FBS. After 12 hours, Hh pathway is activated by adding recombinant mouse Shh protein (expressed in E. coli, 8 μg/mL) or by adding Smo agonists. The testing compounds are added into plates with different concentrations. After 48 hours, the firefly luciferase luciferase activities are assayed with the Bright-Glo™ Luciferase Assay System (Promega, Madison, Wis.). The IC50 is measured when the effect of the compound reduces the luminescence signal by 50%. Toxicity of these compounds are evaluated in TM3 cells using CellTiter Glo assays or by TM3-Luc cell line (a TM3 cell stably transfected with a constitutive luciferase expression vector).

IC50 [nM] | Compound
0.4 | Cc1ccc(Nc2cccc3c2CCN(S(C)(=O)=O)C3)cc1C(=O)Nc1ccc(F)cc1 [Compound 185]
5.3 | CCC(CC)(C(=O)O)C(=O)N1CCc2c(cccc2Nc2ccc(Cl)c(-c3nc(-c4ccccc4)c[nH]3)c2)C1 [Compound 66]
0.73 | OC1CCC(N2CCc3c(cccc3Nc3ccc(Cl)c(-c4ncc(-c5ccccc5)[nH]4)c3)C2)CC1 (stereo not drawn) [Compound 37]
564 | Cc1ccc(Nc2cccc3c2CCN(S(C)(=O)=O)C3)cc1-c1ccc(CO)cc1 [Compound 156]
362 | Cc1ccc(Nc2cccc3c2CCN(S(C)(=O)=O)C3)cc1-c1ccccc1 [Compound 115]

same assay, conditions: Mus musculus, TMHh12, enzymatic and cellular assays for the inhibition of hedgehog signaling pathways; read-out: IC50 Ranges

Compound | IC50 [nM]
Cc1ccc(Nc2cccc3c2CCN(S(C)(=O)=O)C3)cc1-c1ncc(F)cc1F [Compound 272] | 1 to 10
CCOc1cnc(-c2nc(Nc3cccc4c3CCN(S(=O)(=O)C(C)C)C4)ccc2C)cn1 [Compound 336] | 10 to 100
Cc1ccc(Nc2cccc3c2CCN(S(C)(=O)=O)C3)cc1C(=O)Nc1ccc(F)cc1 [Compound 185] | 0.001 to 1
Cc1ccc(Nc2cccc3c2CCN(S(C)(=O)=O)C3)cc1-c1ccc(C(N)=O)cc1 [Compound 142] | 100 to 1000
Cc1ccc(Nc2cccc3c2CCN(S(C)(=O)=O)C3)cc1-c1nc2ccccc2o1 [Compound 105] | 1 to 10
Cc1ccc(Nc2ncnc3c2CCN(S(=O)(=O)C(C)C)C3)cc1-c1ccc(F)cn1 [Compound 300] | 0.001 to 1
Cc1ccc(Nc2cccc3c2CCN(S(C)(=O)=O)C3)cc1-c1ccc2ccccc2n1 [Compound 231] | 0.001 to 1
CCN1CCC(N2CCc3c(cccc3Nc3ccc(Cl)c(-c4ncc(-c5ccccc5)[nH]4)c3)C2)CC1 [Compound 6] | 0.001 to 1
CCC(CC)(C(=O)O)C(=O)N1CCc2c(cccc2Nc2ccc(Cl)c(-c3nc(-c4ccccc4)c[nH]3)c2)C1 [Compound 66] | 1 to 10
Cc1ccc(-c2cc(Nc3cccc4c3CCN(CC(=O)N(C)C)C4)ccc2C)nc1 [Compound 233] | 1 to 10
C[C@@H](O)C(=O)N1CCc2c(cccc2Nc2ccc(Cl)c(-c3ncc(-c4ccccc4)[nH]3)c2)C1 [Compound 8] | 0.001 to 1
COc1ccc(NC(=O)c2cc(Nc3cccc4c3CCN(S(C)(=O)=O)C4)ccc2C)cc1 [Compound 161] | 0.001 to 1
Cc1ccc(Nc2cccc3c2CCN(C(=O)C(C)(CO)CO)C3)cc1-c1ncc(-c2cccnc2)[nH]1 [Compound 76] | 1 to 10
CCN1CCC(N2CCc3ccc(Nc4ccc(Cl)c(-c5nc(-c6ccccc6)c[nH]5)c4)cc3C2)CC1 [Compound 347] | 10 to 100
Cc1ccc(Nc2cccc3c2CCN(S(C)(=O)=O)C3)cc1-c1ccc(CNCCO)cc1 [Compound 158] | 100 to 1000
OC1CCC(N2CCc3c(cccc3Nc3ccc(Cl)c(-c4ncc(-c5ccccc5)[nH]4)c3)C2)CC1 (stereo not drawn) [Compound 37] | 0.001 to 1
Cc1ccc(Nc2cccc3c2CCN(S(C)(=O)=O)C3)cc1-c1cc2ccccc2[nH]1 [Compound 151] | 10 to 100
COc1ccc2[nH]c(-c3cc(Nc4cccc5c4CCN(S(C)(=O)=O)C5)ccc3C)nc2c1 [Compound 15] | 0.001 to 1
Cc1ccc(Nc2cccc3c2CCN(S(C)(=O)=O)C3)cc1-c1nc2ncncc2[nH]1 [Compound 63] | 10 to 100
Cc1ccc(Nc2cccc3c2CCN(S(C)(=O)=O)C3)cc1-c1ccc(C(=O)NCC(O)CO)cc1 (stereo not drawn) [Compound 146] | 1000 to 10000
Cc1ccc(Nc2cccc3c2CCN(S(C)(=O)=O)C3)cc1-c1ccccc1 [Compound 115] | 100 to 1000
CNC(=O)c1ccc(Nc2cccc3c2CCN(S(C)(=O)=O)C3)cc1-c1ccc(C#N)cc1 [Compound 180] | 100 to 1000
Cc1ccc(Nc2nccc3c2CCN(S(C)(=O)=O)C3)cc1-c1ccc(C#N)cc1 [Compound 125] | 10 to 100

Compound | IC50 [nM]
Cc1ccc(Nc2cccc3c2CCN(S(C)(=O)=O)C3)cc1-c1cnn(C)c1 [Compound 128] | 100 to 1000
O=C(CO)N1CCc2c(cccc2Nc2ccc(Cl)c(-c3ncc(-c4ccccc4)[nH]3)c2)C1 [Compound 72] | 0.001 to 1
Cc1ccc(Nc2ncnc3c2CCN(S(C)(=O)=O)C3)cc1-c1ccc(F)cn1 [Compound 298] | 10 to 100
Cc1cnc(-c2cc(Nc3cccc4c3CCN(S(C)(=O)=O)C4)ccc2C)cc1C [Compound 241] | 0.001 to 1
Cc1ccc(Nc2cccc3c2CCN(S(C)(=O)=O)C3)cc1-c1ncc(-c2ccc(CN(C)C)cc2)[nH]1 [Compound 106] | 1 to 10
OCC(F)(F)CN1CCc2c(cccc2Nc2ccc(Cl)c(-c3nc(-c4ccccc4)c[nH]3)c2)C1 [Compound 71] | 0.001 to 1
Cc1ccc(Nc2cccc3c2CCN(S(C)(=O)=O)C3)cc1-c1ccc(C(=O)NCCO)cc1 [Compound 145] | 100 to 1000
O=C(O)CN1CCc2c(cccc2Nc2ccc(Cl)c(-c3nc(-c4ccccc4)c[nH]3)c2)C1 [Compound 53] | 10 to 100
OCC(O)CN1CCC(N2CCc3c(cccc3Nc3ccc(Cl)c(-c4ncc(-c5ccccc5)[nH]4)c3)C2)CC1 (stereo not drawn) [Compound 40] | 0.001 to 1
CS(=O)(=O)N1CCc2c(cccc2Nc2cccc(-c3ccc(C#N)cc3)c2)C1 [Compound 132] | 10 to 100
Cc1ccc(Nc2cccc3c2CCN(S(C)(=O)=O)C3)cc1C(=O)N(CCO)c1ccccc1 [Compound 194] | 100 to 1000
Cc1c(CN(C)C)cc(Nc2cccc3c2CCN(S(C)(=O)=O)C3)cc1-c1ccc(F)cn1 [Compound 197] | 1000 to 10000
[O-][S+]1CCC([N+]2([O-])CCc3c(cccc3Nc3ccc(Cl)c(-c4ncc(-c5ccccc5)[nH]4)c3)C2)CC1 (stereo not drawn) [Compound 26] | 1 to 10
Cc1ccc(Nc2cccc3c2CCN(S(C)(=O)=O)C3)cc1-c1ncc(-c2cccnc2)[nH]1 [Compound 60] | 0.001 to 1
CCS(=O)(=O)N1CCc2c(ncnc2Nc2ccc(C)c(-c3ccc(F)cn3)c2)C1 [Compound 299] | 0.001 to 1
Cc1ccc(Nc2cccc3c2CCN(C[C@H](O)CO)C3=O)cc1-c1nc2ccccc2[nH]1 [Compound 81] | 10 to 100
CS(=O)(=O)N1CCc2c(cccc2Nc2ccc(C(=O)O)c(-c3ccc(C#N)cc3)c2)C1 [Compound 172] | > 10000
CS(=O)(=O)N1CCc2c(cccc2Nc2cc(-c3nc4ccccc4[nH]3)c(Cl)cn2)C1 [Compound 126] | 10 to 100
CS(=O)(=O)N1CCc2c(cccc2Nc2ccc(CO)c(-c3ccc(C#N)cc3)c2)C1 [Compound 178] | 100 to 1000
CCS(=O)(=O)CCN1CCc2c(cccc2Nc2ccc(C)c(-c3ncccc3F)c2)C1 [Compound 283] | 1 to 10
CS(=O)(=O)CCN1CCc2c(cccc2Nc2ccc(Cl)c(-c3ccc(F)cn3)n2)C1 [Compound 302] | 10 to 100
C[C@@H](C(=O)O)N1CCc2c(cccc2Nc2ccc(Cl)c(-c3nc(-c4ccccc4)c[nH]3)c2)C1 [Compound 79] | 1 to 10

Continued, values first:

IC50 [nM] | Compound
10 to 100 | COc1cnnc(-c2cc(Nc3cccc4c3CCN(S(C)(=O)=O)C4)ccc2C)c1 [Compound 270]
1 to 10 | CCS(=O)(=O)CCN1CCc2c(cccc2Nc2ccc(C)c(-c3ccc(OC)nn3)c2)C1 [Compound 282]
10 to 100 | Cc1ccc(Nc2cccc3c2CCN(S(C)(=O)=O)C3)cc1-c1cccc(F)n1 [Compound 218]
1 to 10 | CCOc1cnc(-c2cc(Nc3cccc4c3CCN(C3CCS(=O)(=O)CC3)C4)ccc2C)cn1 [Compound 335]
1 to 10 | COc1ccc(-c2cc(Nc3cccc4c3CCN([C@H]3CCS(=O)(=O)C3)C4)ccc2C)nn1 [Compound 322]
0.001 to 1 | CCS(=O)(=O)CCN1CCc2c(cccc2Nc2ccc(C)c(-c3ccc(C)cn3)c2)C1 [Compound 261]
10 to 100 | CCOc1ccc(-c2nc(Nc3cccc4c3CCN(C3CCS(=O)(=O)C3)C4)ccc2C)nn1 (stereo not drawn) [Compound 334]
0.001 to 1 | Cc1ccc(Nc2cccc3c2CCN(C2CCS(=O)(=O)C2)C3)cc1-c1ncccc1F (stereo not drawn) [Compound 268]
100 to 1000 | Cc1ccc(Nc2cccc3c2CCN(S(C)(=O)=O)C3)cc1-c1ccc(CO)cc1 [Compound 156]
0.001 to 1 | Cc1ccc(Nc2cccc3c2CCN(S(C)(=O)=O)C3)cc1-c1ccc(F)cn1 [Compound 164]
0.001 to 1 | CCOc1ccc(-c2cc(Nc3cccc4c3CCN(S(C)(=O)=O)C4)ccc2C)nn1 [Compound 271]
1 to 10 | CCOc1ccc(-c2cc(Nc3cccc4c3CCN(C3CCS(=O)(=O)CC3)C4)ccc2C)nn1 [Compound 327]
10 to 100 | Cc1ccc(-c2nc(Nc3cccc4c3CCN(C3CS(=O)(=O)C3)C4)ccc2C)nc1 [Compound 285]
1 to 10 | COc1ccc(-c2cc(Nc3cccc4c3CCN(CCS(C)(=O)=O)C4)ccc2C)nn1 [Compound 258]
1 to 10 | Cc1ccc(Nc2cccc3c2CCN(CC(C)(C)F)C3)cc1-c1ccc(F)cn1 [Compound 182]
1 to 10 | COc1cnc(-c2cc(Nc3cccc4c3CCN(C3CCS(=O)(=O)C3)C4)ccc2C)cn1 (stereo not drawn) [Compound 266]
0.001 to 1 | COc1ccc(-c2cc(Nc3cccc4c3CCN(C3CCS(=O)(=O)C3)C4)ccc2C)nn1 (stereo not drawn) [Compound 256]
10 to 100 | COc1cc2[nH]c(-c3cc(Nc4cccc5c4CCN(S(C)(=O)=O)C5)ccc3C)nc2cn1 [Compound 110]
1 to 10 | COc1ccc(-c2cc(Nc3cccc4c3CCN(S(C)(=O)=O)C4)ccc2C)nn1 [Compound 183]

same assay, conditions: enzymatic and cellular assays for the inhibition of hedgehog signaling pathways; read-out: IC50 Ranges

IC50 [nM] | Compound
0.001 to 1 | Cc1ccc(Nc2cccc3c2CCN(C2CCS(=O)(=O)C2)C3)cc1-c1ncc(F)cc1F (stereo not drawn) [Compound 338]
0.001 to 1 | Cc1ccc(Nc2cccc3c2CCN(S(C)(=O)=O)C3)cc1-c1ccc(C(F)(F)F)cn1 [Compound 153]
0.001 to 1 | Cc1ccc(Nc2cccc3c2CCN([C@H]2CCS(=O)(=O)C2)C3)cc1-c1ncccc1F [Compound 345]

Source: US9216964B2, “Hedgehog pathway modulators” (Novartis AG, priority 2008, dated 2015)
